Results published in publication PMC5054527, “Mechanism of high affinity inhibition of the human urate transporter URAT1” (Scientific Reports, 2016).
Where “and” joins values, the source holds several entries; their conditions need not be identical. Equal entries are not always repeated.

Columns and labels:
Experiment in all cases: URAT1 uric acid transport activity assay
[1] = molecular target: T1, h-r TM5-N URAT1 chimera (Homo sapiens, UniProt Q96S37, S238A/V233M); assay type: cell-based, human/rat; details: HEPES pH 7.3, 100 μM 14C-uric acid
T1 construct: expressed in transfected cells; host or cells: HEK-293T
Summary of the method: (§1)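 Cells expressing site-directed rat URAT1 mutants were exposed to inhibitor dilutions for 5 minutes before radiolabelled uric acid (100 μM) was added for 10 minutes. Potency was derived by nonlinear regression of log inhibitor versus response.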

[2] = molecular target: T2, h-r TM7 URAT1 chimera (Homo sapiens, UniProt Q96S37, C351F/F365Y/T354M); assay type: cell-based, human/rat
T2 construct: expressed in transfected cells; host or cells: HEK-293T

[3] = molecular target: T3, h-r TM10 URAT1 chimera (Homo sapiens, UniProt Q96S37, G444S/I452V/V445L/Y455F); assay type: cell-based, human/rat; details: HEPES pH 7.3, 100 μM 14C-uric acid
T3 construct: expressed in transfected cells; host or cells: HEK-293T

[4] = molecular target: T4, h-r TM1 chimera (rURAT1 residues 1–99 and hURAT residues 100–553) (UniProt Q3ZAV1+Q96S37); assay type: cell-based, human/rat
T4 construct: a chimera consisting of rURAT1 residues 1–99 and hURAT residues 100–553 (h-r TM1); expressed in transfected cells; host or cells: HEK-293T

[5] = molecular target: T5, h-r TM9-C URAT1 chimera (Homo sapiens, UniProt Q96S37, A432I/A436S/H428R/T424I); assay type: cell-based, human/rat; details: HEPES pH 7.3, 100 μM 14C-uric acid
T5 construct: expressed in transfected cells; host or cells: HEK-293T

[6] = molecular target: T6, h-r TM8 URAT1 chimera (Homo sapiens, UniProt Q96S37, A392V/A396S/F384L/H402R/I390L/M383A/P407L/V387I); assay type: cell-based, human/rat; details: HEPES pH 7.3, 100 μM 14C-uric acid
T6 construct: expressed in transfected cells; host or cells: HEK-293T

[7] = molecular target: T7, h-r TM11 URAT1 chimera (Homo sapiens, UniProt Q96S37, I481M/M474V); assay type: cell-based, human/rat
T7 construct: expressed in transfected cells; host or cells: HEK-293T

[8] = molecular target: T8, r-h TM1 chimera (hURAT1 residues 1–99 and rURAT1 residues 100–553) (UniProt Q3ZAV1+Q96S37); assay type: cell-based, human/rat; details: HEPES pH 7.3, 100 μM 14C-uric acid
T8 construct: The chimera r-hTM1, consisting of hURAT1 residues 1–99 and rURAT1 residues 100–553; expressed in transfected cells; host or cells: HEK-293T
Summary of the method: as §1

[9] = molecular target: T9, h-r TM6 URAT1 chimera (Homo sapiens, UniProt Q96S37, C272F/L274V); assay type: cell-based, human/rat; details: HEPES pH 7.3, 100 μM 14C-uric acid
T9 construct: expressed in transfected cells; host or cells: HEK-293T

[10] = molecular target: T10, h-M29L hURAT1 point mutant (Homo sapiens, UniProt Q96S37, M29L); assay type: cell-based; details: HEPES pH 7.3, 100 μM 14C-uric acid
T10 construct: expressed in transfected cells; host or cells: HEK-293T

[11] = molecular target: T11, h-I481M hURAT1 point mutant (Homo sapiens, UniProt Q96S37, I481M); assay type: cell-based
T11 construct: expressed in transfected cells; host or cells: HEK-293T

[12] = molecular target: T12, h-S27P hURAT1 point mutant (Homo sapiens, UniProt Q96S37, S27P); assay type: cell-based; details: HEPES pH 7.3, 100 μM 14C-uric acid
T12 construct: expressed in transfected cells; host or cells: HEK-293T

[13] = molecular target: T13, h-V26T hURAT1 point mutant (Homo sapiens, UniProt Q96S37, V26T); assay type: cell-based; details: HEPES pH 7.3, 100 μM 14C-uric acid
T13 construct: expressed in transfected cells; host or cells: HEK-293T

[14] = molecular target: T14, h-M25V hURAT1 point mutant (Homo sapiens, UniProt Q96S37, M25V); assay type: cell-based
T14 construct: expressed in transfected cells; host or cells: HEK-293T

[15] = molecular target: T15, h-M474V hURAT1 point mutant (Homo sapiens, UniProt Q96S37, M474V); assay type: cell-based; details: HEPES pH 7.3, 100 μM 14C-uric acid
T15 construct: expressed in transfected cells; host or cells: HEK-293T

[16] = molecular target: T16, h-T21A hURAT1 point mutant (Homo sapiens, UniProt Q96S37, T21A); assay type: cell-based; details: HEPES pH 7.3, 100 μM 14C-uric acid
T16 construct: expressed in transfected cells; host or cells: HEK-293T

[17] = molecular target: T17, h-M22V hURAT1 point mutant (Homo sapiens, UniProt Q96S37, M22V); assay type: cell-based; details: HEPES pH 7.3, 100 μM 14C-uric acid
T17 construct: expressed in transfected cells; host or cells: HEK-293T

[18] = molecular target: T18, h-C32T hURAT1 point mutant (Homo sapiens, UniProt Q96S37, C32T); assay type: cell-based; details: HEPES pH 7.3, 100 μM 14C-uric acid
T18 construct: expressed in transfected cells; host or cells: HEK-293T

[19] = molecular target: T19, h-C351F/T354M hURAT1 double point mutant (Homo sapiens, UniProt Q96S37, C351F/T354M); assay type: cell-based; details: HEPES pH 7.3, 100 μM 14C-uric acid
T19 construct: expressed in transfected cells; host or cells: HEK-293T
Summary of the method: as §1

[20] = molecular target: T20, h-V18L hURAT1 point mutant (Homo sapiens, UniProt Q96S37, V18L); assay type: cell-based; details: HEPES pH 7.3, 100 μM 14C-uric acid
T20 construct: expressed in transfected cells; host or cells: HEK-293T

[21] = molecular target: T21, hURAT1-S35N/F365Y double point mutant (Homo sapiens, UniProt Q96S37, F365Y/S35N); assay type: cell-based
T21 construct: hURAT1 and rURAT1 are 553 amino acid proteins with 12 transmembrane segments; expressed in transfected cells; host or cells: HEK-293T
T21 sequence (Q96S37 whole entry S35N/F365Y): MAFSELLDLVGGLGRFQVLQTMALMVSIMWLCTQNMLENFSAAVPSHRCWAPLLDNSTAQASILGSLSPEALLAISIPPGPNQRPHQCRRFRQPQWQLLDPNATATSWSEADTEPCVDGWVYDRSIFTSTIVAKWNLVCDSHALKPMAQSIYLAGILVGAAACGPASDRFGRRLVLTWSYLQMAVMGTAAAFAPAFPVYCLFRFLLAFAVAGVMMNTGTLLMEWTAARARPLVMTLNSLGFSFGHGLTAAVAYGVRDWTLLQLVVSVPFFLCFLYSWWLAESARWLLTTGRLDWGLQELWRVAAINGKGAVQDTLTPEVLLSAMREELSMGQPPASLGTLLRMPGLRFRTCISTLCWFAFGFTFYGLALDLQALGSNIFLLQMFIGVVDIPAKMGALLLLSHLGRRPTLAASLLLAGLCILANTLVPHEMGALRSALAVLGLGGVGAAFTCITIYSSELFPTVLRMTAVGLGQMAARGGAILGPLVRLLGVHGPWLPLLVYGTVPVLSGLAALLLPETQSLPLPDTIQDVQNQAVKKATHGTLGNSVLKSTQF

T12 sequence (Q96S37 whole entry S27P): as the sequence (Q96S37 whole entry S35N/F365Y) above, with S27P, N35S, Y365F counted along it
T10 sequence (Q96S37 whole entry M29L): as the sequence (Q96S37 whole entry S35N/F365Y) above, with M29L, N35S, Y365F counted along it
T14 sequence (Q96S37 whole entry M25V): as the sequence (Q96S37 whole entry S35N/F365Y) above, with M25V, N35S, Y365F counted along it
T4 sequence (Q3ZAV1 1-99, change not shown): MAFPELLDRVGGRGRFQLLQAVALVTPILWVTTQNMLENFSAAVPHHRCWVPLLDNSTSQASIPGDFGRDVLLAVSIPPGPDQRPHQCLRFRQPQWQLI
T4 sequence (Q96S37 100-553, change not shown): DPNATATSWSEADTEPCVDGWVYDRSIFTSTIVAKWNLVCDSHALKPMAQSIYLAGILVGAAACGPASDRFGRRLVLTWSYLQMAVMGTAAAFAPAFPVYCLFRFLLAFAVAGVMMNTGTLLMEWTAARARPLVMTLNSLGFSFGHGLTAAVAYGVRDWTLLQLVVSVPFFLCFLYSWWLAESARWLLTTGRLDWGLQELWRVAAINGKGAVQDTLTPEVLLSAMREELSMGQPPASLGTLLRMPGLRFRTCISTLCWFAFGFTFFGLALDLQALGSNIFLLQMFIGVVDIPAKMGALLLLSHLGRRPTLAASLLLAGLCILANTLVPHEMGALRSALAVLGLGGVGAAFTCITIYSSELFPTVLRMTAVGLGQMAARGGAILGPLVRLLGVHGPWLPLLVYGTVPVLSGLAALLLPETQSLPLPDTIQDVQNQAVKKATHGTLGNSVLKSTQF
T2 sequence (Q96S37 whole entry C351F/T354M/F365Y): as the sequence (Q96S37 whole entry S35N/F365Y) above, with N35S, C351F, T354M counted along it
T11 sequence (Q96S37 whole entry I481M): as the sequence (Q96S37 whole entry S35N/F365Y) above, with N35S, Y365F, I481M counted along it
T7 sequence (Q96S37 whole entry M474V/I481M): as the sequence (Q96S37 whole entry S35N/F365Y) above, with N35S, Y365F, M474V, I481M counted along it
T3 sequence (Q96S37 whole entry G444S/V445L/I452V/Y455F): as the sequence (Q96S37 whole entry S35N/F365Y) above, with N35S, Y365F, G444S, V445L, I452V, Y455F counted along it
T13 sequence (Q96S37 whole entry V26T): as the sequence (Q96S37 whole entry S35N/F365Y) above, with V26T, N35S, Y365F counted along it
T1 sequence (Q96S37 whole entry V233M/S238A): as the sequence (Q96S37 whole entry S35N/F365Y) above, with N35S, V233M, S238A, Y365F counted along it
T15 sequence (Q96S37 whole entry M474V): as the sequence (Q96S37 whole entry S35N/F365Y) above, with N35S, Y365F, M474V counted along it
T8 sequence (Q96S37 1-99, change not shown): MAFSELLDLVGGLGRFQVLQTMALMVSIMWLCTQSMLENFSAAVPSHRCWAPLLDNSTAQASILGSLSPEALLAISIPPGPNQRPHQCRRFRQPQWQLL
T8 sequence (Q3ZAV1 100-553, change not shown): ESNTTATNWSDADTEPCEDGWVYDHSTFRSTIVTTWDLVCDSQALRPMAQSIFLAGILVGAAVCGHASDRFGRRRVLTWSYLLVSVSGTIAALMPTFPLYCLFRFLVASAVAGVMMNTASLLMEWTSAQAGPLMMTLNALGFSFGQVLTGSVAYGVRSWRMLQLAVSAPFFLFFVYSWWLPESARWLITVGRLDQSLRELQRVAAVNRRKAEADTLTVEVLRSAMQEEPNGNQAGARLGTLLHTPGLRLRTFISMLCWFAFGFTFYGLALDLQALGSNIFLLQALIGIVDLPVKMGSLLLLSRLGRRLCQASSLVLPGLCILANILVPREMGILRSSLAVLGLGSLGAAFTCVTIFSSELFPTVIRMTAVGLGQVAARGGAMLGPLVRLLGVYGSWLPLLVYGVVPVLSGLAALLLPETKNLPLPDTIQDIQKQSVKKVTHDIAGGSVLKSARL
T16 sequence (Q96S37 whole entry T21A): as the sequence (Q96S37 whole entry S35N/F365Y) above, with T21A, N35S, Y365F counted along it
T5 sequence (Q96S37 whole entry T424I/H428R/A432I/A436S): as the sequence (Q96S37 whole entry S35N/F365Y) above, with N35S, Y365F, T424I, H428R, A432I, A436S counted along it
T18 sequence (Q96S37 whole entry C32T): as the sequence (Q96S37 whole entry S35N/F365Y) above, with C32T, N35S, Y365F counted along it
T17 sequence (Q96S37 whole entry M22V): as the sequence (Q96S37 whole entry S35N/F365Y) above, with M22V, N35S, Y365F counted along it
T19 sequence (Q96S37 whole entry C351F/T354M): as the sequence (Q96S37 whole entry S35N/F365Y) above, with N35S, C351F, T354M, Y365F counted along it
T9 sequence (Q96S37 whole entry C272F/L274V): as the sequence (Q96S37 whole entry S35N/F365Y) above, with N35S, C272F, L274V, Y365F counted along it
T6 sequence (Q96S37 whole entry M383A/F384L/V387I/I390L/A392V/A396S/H402R/P407L): as the sequence (Q96S37 whole entry S35N/F365Y) above, with N35S, Y365F, M383A, F384L, V387I, I390L, A392V, A396S, H402R, P407L counted along it
T20 sequence (Q96S37 whole entry V18L): as the sequence (Q96S37 whole entry S35N/F365Y) above, with V18L, N35S, Y365F counted along it

In the case of `O=C1C(CC[S+]([O-])c2ccccc2)C(=O)N(c2ccccc2)N1c1ccccc1` (stereo not drawn) [sulfinpyrazone], the IC50 [1] is reported as 37 ± 9 µM, the “fold reduced affinity of h-r TM7 compared to hURAT1” value ([2]; from IC50 values) is reported as 8 fold and the IC50 ([2]; h-r TM7, HEPES pH 7.3, 100 μM 14C-uric acid) is reported as 254 ± 47 µM. For the same compound, the IC50 [3] was 49 ± 11 µM, the “fold reduced affinity of h-r TM1 compared to hURAT1” value ([4]; from IC50 values) was 3 fold and the IC50 ([4]; h-r TM1, HEPES pH 7.3, 100 μM 14C-uric acid) was 93 ± 17 µM. For the same compound, the IC50 [5] was 38 ± 11 µM, the IC50 [6] was 29 ± 13 µM and the “fold reduced affinity of h-r TM11 compared to hURAT1” value ([7]; from IC50 values) was 3 fold. It also gave an IC50 ([7]; h-r TM11, HEPES pH 7.3, 100 μM 14C-uric acid) of 100 ± 15 µM, an IC50 [8] of 87 ± 25 µM and an IC50 [9] of 30 ± 4 µM. For the same compound, the IC50 [10] was 8.5 µM and 9 µM, the “fold reduced affinity of h-I481M compared to hURAT1” value ([11]; from IC50 values) was 4 fold and the IC50 ([11]; h-I481M, HEPES pH 7.3, 100 μM 14C-uric acid) was 118 ± 8.1 µM. For the same compound, the IC50 [12] was 9.3 µM and 9 µM, the IC50 [13] was 21 ± 4.7 µM and the “fold reduced affinity of h-M25V compared to hURAT1” value ([14]; from IC50 values) was 1.7 fold. It also gave an IC50 ([14]; h-M25V, HEPES pH 7.3, 100 μM 14C-uric acid) of 53 ± 6 µM, an IC50 [15] of 30 ± 3.4 µM and an IC50 [16] of 12 ± 2.3 µM. The IC50 [17] was 28 ± 3.1 µM, the IC50 [18] was 29 ± 3.2 µM and the IC50 [19] was 60 ± 5.9 µM. It also gave an IC50 [20] of 19 ± 4.7 µM.

For `O=c1[nH]c(=O)c2[nH]c(=O)[nH]c2[nH]1` [uric acid], the “fold decrease in affinity of h-S35N/F365Y relative to hURAT1” value ([21]; from IC50 values) was 3.9 fold and the IC50 ([21]; hURAT1-S35N/F365Y, MES pH 5.5, 100 μM 14C-uric acid) was 960 µM.
